Columns and labels:
[1] = test system: wild-type and Abca4−/− mice; assay: Efficacy in a mammalian model; type: in vivo, mouse; conditions: orally dosed for 3 weeks at 30 mg/kg
Experimental: (§1) The effectiveness of the compounds listed in Example 1-46 are tested in wild-type and Abca4−/− mice. The Abca4−/− mouse model manifests accelerated accumulation of lipofuscin in the RPE and is considered a pre-clinical efficacy model for a drug reducing lipofuscin accumulation. Compounds are orally dosed for 3 weeks at 30 mg/kg. There is a reduction in the serum RBP4 level in treated animals. The levels of A2E/isoA2E and other bisretinoids are reduced in treated mice.
as §1, with “octahydropyrrolopyrroles 66 and 67” for “compounds listed in Example 1-46”
as §1, with “octahydropyrrolopyrroles of the present invention” for “compounds listed in Example 1-46”

RBP4 [2] = biological target: T1, RBP4 (Homo sapiens (Human), UniProt P02753); assay: Scintillation proximity RBP4 binding assay (SPA); conditions: for IC50: 10 nM 3H-Retinol, 50 nM biotinylated RBP4
Experimental: Scintillation Proximity RBP4 Binding Assay
Untagged human RBP4 purified from urine of tubular proteinuria patients was purchased from Fitzgerald Industries International. It was biotinylated using the EZ-Link Sulfo-NHS-LC-Biotinylation kit from Pierce following the manufacturer's recommendations. Binding experiments were performed in 96-well plates (OptiPlate, PerkinElmer) in a final assay volume of 100 μl per well in SPA buffer (1×PBS, pH 7.4, 1 mM EDTA, 0.1% BSA, 0.5% CHAPS). The reaction mix contained 10 nM ^3H-Retinol (48.7 Ci/mmol; PerkinElmer), 0.3 mg/well Streptavidin-PVT beads, 50 nM biotinylated RBP4 and a test compound. Nonspecific binding was determined in the presence of 20 μM of unlabeled retinol. The reaction mix was assembled in the dark under dim red light. The plates were sealed with clear tape (TopSeal-A: 96-well microplate, PerkinElmer), wrapped in the aluminum foil, and allowed to equilibrate 6 hours at room temperature followed by overnight incubation at +4° C. Radiocounts were measured using a TopCount NXT counter (Packard Instrument Company).

RBP4-TTR interaction [3] = biological target: T2, RBP4-TTR interaction (Homo sapiens (Human), UniProt P02753); assay: TR-FRET (HTRF) assay for retinol-induced RBP4-TTR interaction; type: biochemical; conditions: for IC50: in the presence of 1 μM retinol, read-out: HTRF assay for antagonists of RBP4-TTR interaction IC50
Description: TR-FRET Assay for Retinol-Induced RBP4-TTR Interaction
Binding of a desired RBP4 antagonist displaces retinol and induces hindrance for RBP4-TTR interaction resulting in the decreased FRET signal (FIG. 7). Bacterially expressed MBP-RBP4 and untagged TTR were used in this assay. For the use in the TR-FRET assay the maltose binding protein (MBP)-tagged human RBP4 fragment (amino acids 19-201) was expressed in the Gold(DE3)pLysS E. coli strain (Stratagene) using the pMAL-c4x vector. Following cell lysis, recombinant RBP4 was purified from the soluble fraction using the ACTA FPLC system (GE Healthcare) equipped with the 5-ml the MBP Trap HP column. Human untagged TTR was purchased from Calbiochem. Untagged TTR was labeled directly with Eu^3+ Cryptate-NHS using the HTRF Cryptate Labeling kit from CisBio following the manufacturer's recommendations. HTRF assay was performed in white low volume 384 well plates (Greiner-Bio) in a final assay volume of 16 μl per well. The reaction buffer contained 10 mM Tris-HCl pH 7.5, 1 mM DTT, 0.05% NP-40, 0.05% Prionex, 6% glycerol, and 400 mM KF. Each reaction contained 60 nM MBP-RBP4 and 2 nM TTR-Eu along with 26.7 nM of anti-MBP antibody conjugated with d2 (Cisbio). Titration of test compounds in this assay was conducted in the presence of 1 μM retinol. All reactions were assembled in the dark under dim red light and incubated overnight at +4° C. wrapped in aluminum foil. TR-FRET signal was measured in the SpectraMax M5e Multimode Plate Reader (Molecular Device). Fluorescence was excited at 337 nm and two readings per well were taken: Reading 1 for time-gated energy transfer from Eu(K) to d2 (337 nm excitation, 668 nm emission, counting delay 75 microseconds, counting window 100 microseconds) and Reading 2 for Eu(K) time-gated fluorescence (337 nm excitation, 620 nm emission, counting delay 400 microseconds, counting window 400 microseconds). The TR-FRET signal was expressed as the ratio of fluorescence intensity: Flu665/Flu620×10,000.

RBP4-TTR interaction [4] = biological target: T2, RBP4-TTR interaction; conditions: cited from earlier work
[5] = test system: retinal pigment epithelium cells; conditions: many cell types, including retinal pigment epithelium cells; cited from earlier work
mice = conditions: cited from earlier work
serum RBP4 and retinol = conditions: in vivo; cited from earlier work
Abca4−/− mice = conditions: cited from earlier work
RBP4 [6] = biological target: T1, RBP4; conditions: cited from earlier work

RBP4 binding (SPA), in words (RBP4 [2])	IC50 (RBP4 [2]) [nM]	IC50 (RBP4-TTR interaction [3]) [nM]	Compound	levels of A2-DHP-PE and atRAL di-PE [1]	levels of A2E/isoA2E and other bisretinoids [1]	serum RBP4 level [1]	antagonism of retinol-dependent RBP4-TTR interaction (HTRF), in words (RBP4-TTR interaction [3])	RBP4-TTR interaction (RBP4-TTR interaction [4])	induction of apoptosis [5]	formation of hemangiosarcomas (mice)	ocular all-trans retinol uptake (serum RBP4 and retinol)	serum RBP4 and retinol (serum RBP4 and retinol)	A2E production (Abca4−/− mice)	binding to RBP4 (RBP4 [6])	displacement of all-trans retinol from RBP4 (RBP4 [6])
			Cc1cc(C(=O)O)nc(N2C[C@@H]3CN(c4ccccc4C(F)(F)F)C[C@@H]3C2)n1 [Compound 67, 6-Methyl-2-((3aR,6aS)-5-(2-(trifluoromethyl)phenyl)hexahydropyrrolo[3,4-c]pyrrol-2(1H)-yl)pyrimidine-4-carboxylic Acid]	also reduced	reduced	reduction									
binded to RBP4	3.9	74	COC(=O)c1cc(C)nc(N2C[C@@H]3CN(c4ccccc4C(F)(F)F)C[C@@H]3C2)n1 [Compound 66, Methyl 6-methyl-2-((3aR,6aS)-5-(2-(trifluoromethyl)phenyl)hexahydropyrrolo[3,4-c]pyrrol-2(1H)-yl)pyrimidine-4-carboxylate]	also reduced	reduced	reduction	antagonized retinol-dependent RBP4-TTR interaction								
binded to RBP4	1.68	20.8	Cc1ccc2nnc(C(=O)N3C[C@@H]4CN(c5ccccc5C(F)(F)F)C[C@@H]4C3)n2c1 [Compound 65, (6-Methyl-[1,2,4]triazolo[4,3-a]pyridin-3-yl)((3aR,6aS)-5-(2-(trifluoromethyl)phenyl)hexahydropyrrolo[3,4-c]pyrrol-2 (1H)-yl)methanone]				antagonized retinol-dependent RBP4-TTR interaction								
			CC1=C(/C=C/C(C)=C/C=C/C(C)=C/C(=O)Nc2ccc(O)cc2)C(C)(C)CCC1 [fenretinide, N-(4-hydroxy-phenyl)retinamide]					disrupt the RBP4-TTR interaction	extremely active inducer of apoptosis	stimulate formation of hemangiosarcomas	inhibit ocular all-trans retinol uptake	reduce serum RBP4 and retinol	reduced A2E production	bind to RBP4	displace all-trans retinol from RBP4
